One series deals with genotype 1b HCV. Description: Oral administration to HCV-infected chimpanzee, viral load (genotype 1b). In kind it is in vivo. As to conditions: Chimpanzee I. Here is the method: Via oral gavage, two HCV-infected chimpanzees I (male, 56.49 kg and 11 years old; genotype 1b HCV) and II (male, 61.91 kg and 34 years old; genotype 1a HCV) each received a single dosage of 200 mg of Compound 1 in Formulation I while the HCV-infected chimpanzee III (male, 56.19 kg and 18 years old; genotype 1a HCV) was administered a single dosage of 260 mg of the non-phosphorylated analog of Compound 1 (Table 1) in Formulation I. After 12 hours, the HCV viral titer decreased from 24,100 to 10,200 IU/ml (or 58% drop) in Chimpanzee I, from 38,500 to 27,000 IU/ml (or 30% drop) in Chimpanzee II, and from 154,000 to 142,000 IU/ml (or 8% drop) in Chimpanzee III. […] All animals were fasted overnight prior to dosing and a minimum of 2 hours prior to scheduled blood sample collections. Viral load determinations were performed on plasma samples using the HCV TaqMan assay (COBAS® AmpliPrep/COBAS® TaqMan® HCV Test, Version 2, Test Code 1220) for quantitative analysis. […] There were no adverse effects, illness, nor distress seen with the three chimpanzees during the study requiring veterinarian intervention.

A further series has as its system HCV luciferase replicon. Description: IC50 assay: inhibition of the HCV luciferase replicon in Huh7 cells. The format is cell-based. The protocol: After 48 h of treatment at 37° C., the media in each well was removed, the cells were gently washed once with phosphate buffered saline (PBS) and subsequently lysed by the addition of Glo Lysis Buffer (Promega). After a 15 min incubation at room temperature to allow for complete cell lysis, Bright-Glo luciferase reagent (Promega) was added to each well and the relative luciferase activity in each well was determined by using a Glowmax 96 microplate luminometer (Promega).
IC50 values determined using the above methods for inhibition of the HCV luciferase replicon in Huh7 cells are set forth in Table 1.
All compounds were purified by HPLC.

A further series deals with MCF-7. Description: TC50 assay with human cancer cell lines, 96 h: MCF-7. The format is cell-based. To be noted: MCF7, 96 h, read-out: TC50 MCF-7 (μM).

Procedure for MCF-7: Huh7 cells were maintained at 37° C. in a humidified atmosphere at 5% CO2 in DMEM containing 10% FBS. […] The cells were then treated with each compound at concentrations ranging from 500 μM to 0 μM in triplicate in DMEM media containing 2% FBS and 0.5% DMSO and without phenol red. After 48 h of treatment at 37° C., the relative number of living cells in each well was determined by using the CellTiter 96 system (Promega) according to the manufacturer's instructions. The 3-(4,5-dimethylthiazol-2-yl)-5-(3-carboxymethoxyphenyl)-2-(4-sulfophenyl)-2H-tetrazolium (MTS) and phenazine methosulfate (PMS) reagents were added to each well of the 96-well plate and the plate was incubated at 37° C. for approximately 2 h. The absorbance at 490 nm and 650 nm in each well was then determined by using a Flexstation 3 microplate reader (Molecular Dynamics). The absorbance determined at 650 nm was then subtracted from the absorbance determined at 490 nm to correct for light scattering. The corrected absorbance values representing the relative number of live cells in each condition were then plotted as a function of compound concentration, and the data were then fit to the following sigmoidal Emax equation by using Kaleidagraph: y=(Emax*x^Slope)/(TC50^Slope+x^Slope) where y is the relative corrected absorbance value, Emax is the maximum relative inhibition, x is the compound concentration, TC50 is the concentration of the compound at which the total cell population is reduced by 50%, and Slope is the slope of the curve.
Huh7, HEPG2, HEK293, MCF-7 and BxPC3 cell lines were maintained at 37° C. in a humidified atmosphere at 5% CO2 in DMEM containing 10% FBS. […] The cells were then treated with each compound at concentrations ranging from 500 μM to 0 μM in triplicate in DMEM media containing 2% FBS and 0.5% DMSO and without phenol red.

With `CCCC(CCC)C(=O)Nc1ccn([C@@H]2O[C@H](CO[P@@](=O)(N[C@@H](C)C(=O)OC(C)C)Oc3ccccc3)[C@@H](O)C2(F)F)c(=O)n1` [Compound 1, (S)-isopropyl 2-(((S)-(((2R,3R,5R)-4,4-difluoro-3-hydroxy-5-(2-oxo-4-(2-propylpentanamido)pyrimidin-1(2H)-yl)tetrahydrofuran-2-yl)methoxy)(phenoxy)phosphoryl)amino)propanoate], in the series with genotype 1b HCV (single oral dosage 200 mg), the “drop of HCV viral titer after 12 hours” value was found to be 58%. Further, the “HCV viral titer after 12 hours” value with genotype 1b HCV (single oral dosage 200 mg in Formulation I, titer before 24,100 IU/ml) was 10,200 IU/ml. Moreover, the IC50 in the series on HCV luciferase replicon (Hepatitis C virus, Huh-7, 48 h) was 88.4 ± 13.3 nM. The “Therapeutic Index (TC50/IC50)” value in the series on HCV luciferase replicon (TC50 in Huh7 / IC50 HCV replicon, 48 h) came out at 198. In addition, in the series on MCF-7, the CC50 was 1.76 ± 0.67 µM.

(Values after patent publication US10059733B2 (NUCORION PHARMACEUTICALS, INC., priority 2014, dated 2018).)
